Read-outs that look alike come from different tables or passages of the source.
Legend:
[1] = target: T1, human galectin-3C (Gal-3C, C-terminal CRD of galectin-3) (Homo sapiens, UniProt P17931); test: Competitive fluorescence polarization assay, Gal-3C; type: binding
T1 construct: only the C-terminal domain was used (Gal-3C); 6xHis tag with TEV protease site (N, cleaved yes); made in house; host or cells: BL21 Escherichia coli (pET-15b)
Experimental: (§1) Our investigation of the structure–activity relationship of N-aryl-N-lactosylamides started with an initial screening of substituted acetanilides (Table ). These compounds can be readily synthesized from a wide range of commercially available substituted anilines. Affinity was evaluated using a fluorescence polarization assay, which enables reliable determination of dissociation constants (K d) between small molecules and galectins. All inhibitors in this series were tested against the two most common human galectins: Gal-1 and Gal-3. Gal-1 is a prototype galectin consisting of a single CRD and was used in full length. In the case of Gal-3, which consists of the C-terminal CRD and N-terminal unfolded region, only the C-terminal domain was used (Gal-3C). Affinities were compared to methyl β-lactoside (β-LacOMe) as a baseline.
(§2) Fluorescence polarization experiments for determining inhibitor affinities were performed using the same instrumentation and settings as described for the direct binding experiments. […] The galectin–probe mixture was subsequently added using a Certus Flex liquid handler (Fritz Gyger AG, Switzerland) to reach a final volume of 5 μL. Anisotropy was measured after 30–60 min incubation at 25 °C. Inhibitor dissociation constants (K d) were calculated using Wang’s exact cubic model for competitive binding implemented in the BindCurve package. Protein and probe concentrations used in these competitive experiments are provided in the Supporting Information.
(§3) Competitive binding was modeled by Wang’s exact cubic model,3 which is written as […]
(§4) r = rmin + (rmax − rmin) 3 (6) […]
(§5) where r, rmin and rmax have the same meaning as in Equation 1. The coefficients a, b, and c are […]
(§6) a = Kd∗ + Kd + [L∗]T + [L]T − [R]T (7) b = Kd∗([L]T − [R]T) + Kd([L∗]T − [R]T) + Kd∗ Kd (8) […]
(§7) where Kd∗ is the dissociation constant of the probe, Kd is the dissociation constant of the […]
(§8) the unlabeled ligand, and [R]T is the total concentration of the receptor. The angle θ is defined […]
(§9) In the competitive binding experiments, the values of [L∗]T, [R]T and Kd∗ are known and [L]T is titrated. The values of minimal and maximal anisotropy rmin and rmax were fixed during fitting at the values of the minimal and maximal asymptotes obtained from the direct binding experiments. The value of Kd was calculated as the only unfixed parameter in the model.
(§10) Experimental constants used for the competitive fluorescence polarization experiments are […]
(§11) Table S2. Experimental constants used for competitive fluorescence polarization experiments. […]

[2] = target: T2, human galectin-1 (Gal-1, full length) (Homo sapiens, UniProt P09382); test: Competitive fluorescence polarization assay, Gal-1; type: binding
T2 construct: Gal-1 is a prototype galectin consisting of a single CRD and was used in full length; 6xHis tag with TEV protease site (N, cleaved yes); made in house; host or cells: BL21 Escherichia coli (pET-15b)
T2 sequence (P09382 2-135): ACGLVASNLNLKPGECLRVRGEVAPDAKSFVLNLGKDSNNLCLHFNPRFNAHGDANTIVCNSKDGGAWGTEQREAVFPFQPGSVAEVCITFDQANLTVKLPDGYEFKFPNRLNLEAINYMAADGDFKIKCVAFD
Experimental: as §1, §2, §3, §4, §5, §6, §7, §8, §9, §10, §11

[3] = CSV supplement, unrounded mean, read-out: Gal3C_IC50_mean_uM
[4] = CSV supplement, unrounded mean, read-out: Gal3C_Kd_mean_uM
[5] = competitive fluorescence polarization, mean ± SD, read-out: Kd Gal-3C
[6] = four-parameter logistic model, mean ± SD, read-out: IC50 Gal-3C
[7] = CSV supplement, unrounded mean, read-out: Gal1_IC50_mean_uM
[8] = CSV supplement, unrounded mean, read-out: Gal1_Kd_mean_uM
[9] = competitive fluorescence polarization, mean ± SD, read-out: Kd Gal-1
[10] = four-parameter logistic model, mean ± SD, read-out: IC50 Gal-1

T1 sequence (P17931 118-248 limits assumed): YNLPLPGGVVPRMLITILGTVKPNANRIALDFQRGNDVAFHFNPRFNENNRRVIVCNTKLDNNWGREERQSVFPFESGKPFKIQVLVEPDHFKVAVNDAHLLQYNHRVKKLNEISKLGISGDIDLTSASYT

| SMILES | IC50 [1, 3] | Kd [1, 4] | Kd [1, 5] | IC50 [1, 6] | IC50 [2, 7] | Kd [2, 8] | Kd [2, 9] | IC50 [2, 10] | improvement in affinity toward Gal-3C compared to 3a ([1]; compared to unsubstituted phenyl derivative 3a) | selectivity for Gal-3C over Gal-1 ([1]; ratio Kd (Gal-1)/Kd (Gal-3C)) | improvement in affinity toward Gal-1 compared to 3a ([2]; compared to 3a) |
| --- | --- | --- | --- | --- | --- | --- | --- | --- | --- | --- | --- |
| CC(=O)N(c1cccc(-c2ccc(C)o2)c1)[C@@H]1O[C@H](CO)[C@@H](O[C@@H]2O[C@H](CO)[C@H](O)[C@H](O)[C@H]2O)[C@H](O)[C@H]1O [Compound 3z, N-[4-O-(β-D-Galactopyranosyl)-β-D-glucopyranosyl]-N-[3-(5-methylfuran-2-yl)phenyl]acetamide] | 327 µM | 121 µM | 120 ± 30 µM | 330 ± 1 µM | 860 µM | 558 µM | 560 ± 80 µM | 860 ± 100 µM | – | – | – |
| CC(C)C(=O)N(c1cccc(C(=O)O)c1)[C@@H]1O[C@H](CO)[C@@H](O[C@@H]2O[C@H](CO)[C@H](O)[C@H](O)[C@H]2O)[C@H](O)[C@H]1O [Compound 3s, N-[4-O-(β-D-Galactopyranosyl)-β-D-glucopyranosyl]-N-(3-carboxyphenyl)-2-methylpropanamide] | 113 µM | 39.5 µM | 39 ± 4 µM | 110 ± 0.2 µM | 1800 µM | 1000 µM | 1000 ± 300 µM | 1800 ± 200 µM | – | – | – |
| CC(=O)N(c1cccc(C(=O)O)c1)[C@@H]1O[C@H](CO)[C@@H](O[C@@H]2O[C@H](CO)[C@H](O)[C@H](O)[C@H]2O)[C@H](O)[C@H]1O [Compound 3r, N-[4-O-(β-D-Galactopyranosyl)-β-D-glucopyranosyl]-N-(3-carboxyphenyl)acetamide] | 127 µM | 40.9 µM | 41 ± 10 µM | 130 ± 20 µM | 1400 µM | 858 µM | 860 ± 30 µM | 1400 ± 100 µM | 2 fold | 20 fold | – |
| CC(=O)N(c1cccc(-c2nnn[nH]2)c1)[C@@H]1O[C@H](CO)[C@@H](O[C@@H]2O[C@H](CO)[C@H](O)[C@H](O)[C@H]2O)[C@H](O)[C@H]1O [Compound 3y, N-[4-O-(β-D-Galactopyranosyl)-β-D-glucopyranosyl]-N-[3-(1H-tetrazol-5-yl)phenyl]acetamide] | 123 µM | 48.8 µM | 49 ± 20 µM | 120 ± 9 µM | 1260 µM | 812 µM | 810 ± 200 µM | 1300 ± 100 µM | – | – | – |
| COc1cc(N(C(C)=O)[C@@H]2O[C@H](CO)[C@@H](O[C@@H]3O[C@H](CO)[C@H](O)[C@H](O)[C@H]3O)[C@H](O)[C@H]2O)cc(OC)c1OC [Compound 3o, N-[4-O-(β-D-Galactopyranosyl)-β-D-glucopyranosyl]-N-(3,4,5-trimethoxyphenyl)acetamide] | 238 µM | 76.2 µM | 76 ± 20 µM | 240 ± 40 µM | 461 µM | 243 µM | 240 ± 40 µM | 460 ± 80 µM | – | – | 2 fold |
| COC(=O)c1cc(N(C(C)=O)[C@@H]2O[C@H](CO)[C@@H](O[C@@H]3O[C@H](CO)[C@H](O)[C@H](O)[C@H]3O)[C@H](O)[C@H]2O)c2cc[nH]c2c1 [Compound 3ae, N-[4-O-(β-D-Galactopyranosyl)-β-D-glucopyranosyl]-N-[6-(methylcarboxy)-1H-indol-4-yl]acetamide] | 42.5 µM | 15.9 µM | 16 ± 2 µM | 43 ± 4 µM | 1030 µM | 637 µM | 640 ± 90 µM | 1000 ± 100 µM | – | – | – |
| CC(=O)N(c1cccc(-c2cn(C)nn2)c1)[C@@H]1O[C@H](CO)[C@@H](O[C@@H]2O[C@H](CO)[C@H](O)[C@H](O)[C@H]2O)[C@H](O)[C@H]1O [Compound 3aa, N-[4-O-(β-D-Galactopyranosyl)-β-D-glucopyranosyl]-N-[3-(1-methyl-1H-1,2,3-triazol-4-yl)phenyl]acetamide] | 191 µM | 68.7 µM | 69 ± 20 µM | 190 ± 9 µM | 899 µM | 571 µM | 570 ± 60 µM | 900 ± 100 µM | – | – | – |
| O=C(O)c1cccc(N(C(=O)Cc2ccccc2)[C@@H]2O[C@H](CO)[C@@H](O[C@@H]3O[C@H](CO)[C@H](O)[C@H](O)[C@H]3O)[C@H](O)[C@H]2O)c1 [Compound 3u, N-[4-O-(β-D-Galactopyranosyl)-β-D-glucopyranosyl]-N-(3-carboxyphenyl)-2-phenylacetamide] | 133 µM | 53.6 µM | 54 ± 6 µM | 130 ± 20 µM | 2150 µM | 1240 µM | 1200 ± 10 µM | 2100 ± 800 µM | – | – | – |

Second part, the compound after the results:

| IC50 [1, 3] | Kd [1, 4] | Kd [1, 5] | IC50 [1, 6] | IC50 [2, 7] | Kd [2, 8] | Kd [2, 9] | IC50 [2, 10] | improvement in affinity toward Gal-3C compared to 3a ([1]; compared to unsubstituted phenyl derivative 3a) | selectivity for Gal-3C over Gal-1 ([1]; ratio Kd (Gal-1)/Kd (Gal-3C)) | improvement in affinity toward Gal-1 compared to 3a ([2]; compared to 3a) | SMILES |
| --- | --- | --- | --- | --- | --- | --- | --- | --- | --- | --- | --- |
| 489 µM | 160 µM | 160 ± 30 µM | 490 ± 60 µM | 1040 µM | 560 µM | 560 ± 100 µM | 1000 ± 90 µM | – | – | – | CC(=O)N(c1cccc(C(F)(F)F)c1)[C@@H]1O[C@H](CO)[C@@H](O[C@@H]2O[C@H](CO)[C@H](O)[C@H](O)[C@H]2O)[C@H](O)[C@H]1O [Compound 3d, N-[4-O-(β-D-Galactopyranosyl)-β-D-glucopyranosyl]-N-(3-trifluoromethylphenyl)acetamide] |
| 275 µM | 87.1 µM | 87 ± 10 µM | 270 ± 10 µM | 595 µM | 322 µM | 320 ± 100 µM | 590 ± 70 µM | – | – | – | CC(=O)N(c1ccc(F)cc1)[C@@H]1O[C@H](CO)[C@@H](O[C@@H]2O[C@H](CO)[C@H](O)[C@H](O)[C@H]2O)[C@H](O)[C@H]1O [Compound 3e, N-[4-O-(β-D-Galactopyranosyl)-β-D-glucopyranosyl]-N-(4-fluorophenyl)acetamide] |
| 305 µM | 98.1 µM | 98 ± 3 µM | 300 ± 50 µM | 671 µM | 361 µM | 360 ± 20 µM | 670 ± 30 µM | – | – | – | CC(=O)N(c1cccc(F)c1)[C@@H]1O[C@H](CO)[C@@H](O[C@@H]2O[C@H](CO)[C@H](O)[C@H](O)[C@H]2O)[C@H](O)[C@H]1O [Compound 3f, N-[4-O-(β-D-Galactopyranosyl)-β-D-glucopyranosyl]-N-(3-fluorophenyl)acetamide] |
| 328 µM | 111 µM | 110 ± 8 µM | 330 ± 5 µM | 565 µM | 314 µM | 310 ± 90 µM | 570 ± 10 µM | – | – | – | CC(=O)N(c1cc(F)c(F)c(F)c1)[C@@H]1O[C@H](CO)[C@@H](O[C@@H]2O[C@H](CO)[C@H](O)[C@H](O)[C@H]2O)[C@H](O)[C@H]1O [Compound 3i, N-[4-O-(β-D-Galactopyranosyl)-β-D-glucopyranosyl]-N-(3,4,5-trifluorophenyl)acetamide] |
| 282 µM | 93.2 µM | 93 ± 20 µM | 280 ± 20 µM | 931 µM | 507 µM | 510 ± 30 µM | 930 ± 8 µM | – | – | – | CC(=O)N(c1ccccc1F)[C@@H]1O[C@H](CO)[C@@H](O[C@@H]2O[C@H](CO)[C@H](O)[C@H](O)[C@H]2O)[C@H](O)[C@H]1O [Compound 3g, N-[4-O-(β-D-Galactopyranosyl)-β-D-glucopyranosyl]-N-(2-fluorophenyl)acetamide] |
| 346 µM | 112 µM | 110 ± 20 µM | 350 ± 40 µM | 659 µM | 376 µM | 380 ± 60 µM | 660 ± 8 µM | – | – | – | CC(=O)N(c1ccc(Cl)c(Cl)c1)[C@@H]1O[C@H](CO)[C@@H](O[C@@H]2O[C@H](CO)[C@H](O)[C@H](O)[C@H]2O)[C@H](O)[C@H]1O [Compound 3k, N-[4-O-(β-D-Galactopyranosyl)-β-D-glucopyranosyl]-N-(3,4-dichlorophenyl)acetamide] |

Reference: article PMC12670426 (Journal of Medicinal Chemistry, 2025)
